Source: US20100311700A1, “Transdermal preparation for external use containing nonsterioidal antiinflammatory/analgesic agent” (Hisamitsu Pharmaceutical Co., Inc., priority 2005, published 2010)

Columns and labels:
Assay type in all cases: in vivo
Balb/c mice [1] = test: Murine auricular photo-irradiation test (ear edema after 2% ketoprofen + UVA); settings: UVA 40 J/cm^2, toward the KP group
Method: The following experiments were carried out by referring to the method of Gerberick et al. (Food Chem. Toxicol., 27, 813-819 (1989) and modifying a part of it. Namely, as a test animal, Balb/c mice (female, 9-11 weeks old) were used. Each test substance {4-tert-butyl-4′-methoxydibenzoylmethane (BM-DBM), 2-ethylhexyl dimethoxybenzylidenedioxoimidazolidinepropionate (DB-D1H), terephthalylidene-3,3′-dicamphor-10,10′-disulfonic acid (TCDCS) and n-hexyl 2-(4-dimethylamino-2-hydroxybenzoyl)benzoate (DHB-BH)} which were dissolved in ethanol and 2% ketoprofen (KP) were applied on the auricle, and followed by WA irradiation at 40 J/cm^2.
The ear thickness was measured 24 hours after the WA irradiation, and an increase from the ear thickness prior to the start of the test was calculated.

Balb/c mice [2] = test: Murine auricular lymph node test 2 (modified LLNA, lymph node weight after ketoprofen + UVA); settings: test substance 2% with KP 2%; UVA 20 J/cm^2, three days; lymph node removed after 5 days; toward the KP group
Method: Detection of a skin symptom due to an immunological mechanism resulting from KP upon photo-irradiation was carried out by other modified method of the above LLNA. Namely, as a test animal, Balb/c mice (female, 8-12 weeks old) were used. A test substance of 2% concentration and KP of 2% concentration which were dissolved in acetone—olive oil (4:1, v/v) or acetone—olive oil—physiological saline (3:3:1, v/v) were applied on the back of the pinna, and followed by UVA irradiation at 20 J/cm^2. This treatment inducing sensitization was carried out for three days consecutively. After 5 days from the start of the sensitization, the murine auricular lymph node was removed, and pooled in PBS. Then, PBS attached to the removed lymph node was sufficiently wiped up, and weighed. […]

Balb/c mice [3] = test: Murine local lymph node test 1 (modified LLNA, 3H-TdR uptake after ketoprofen + UVA); settings: UVA 20 J/cm^2, 3 days, toward the KP group
Method: Detection of a skin symptom due to an immunological mechanism resulting from KP upon photo-irradiation was carried out by a modified method of Murine Local Lymph Node Assay (LLNA) proposed by The Interagency Coordinating Committee on the Validation of Alternative Methods (ICCVAM). Namely, as a test animal, Balb/c mice (female, 8-12 weeks old) were used. The test substance {4-tert-butyl-4′-methoxydibenzoylmethane (BM-DBM)} and 2% ketoprofen (KP) which were dissolved in acetone—olive oil (4:1, v/v) were applied on the back of the pinna, and followed by UVA irradiation at 20 J/cm^2. This treatment inducing sensitization was carried out for 3 days consecutively. After 5 days from the start of sensitization, a ^3H-methylthymidine (3H-TdR)/PBS solution of 20μCi per mouse was injected in the tail vein, and after 5 hours, the auricular lymph node was removed. The removed lymph node was made into a single lymph cell suspension by a cell strainer, then washed two times with PBS, and let it stand in 5% trichloroacetic acid (TCA) solution at 4° C. overnight to precipitate DNA. The precipitate was suspended in 1 ml of 5% TCA solution and a radiation activity was measured by a liquid scintillation counter.

[4] = system: Hartley strain guinea pig; test: Photo-sensitization test using guinea pigs (modified Adjuvant and Strip method); settings: 2% test substance with 2% KP in ethanol, UVA 10 J/cm^2, toward the KP group
Method: An effect exerted by the UV blocker to skin symptoms due to an immunological mechanism resulting from KP upon photo-irradiation was further examined by a modified method of the Adjuvant and Strip method of Sato et al. (Nishinihon Hifuka, 42, 831-837 (1980)) using guinea pigs. That is, the cervical back of a white female Hartley strain guinea pig (eight guinea pigs per group) was depilated, and the adjuvant was administered to four corners of 2×2 cm, and then, 2% ketoprofen (KP) solution, or 2% KP and 2% test substance {4-tert-butyl-4′-methoxydibenzoylmethane (BM-DBM)} solution, which were dissolved in ethanol, were applied on the above parts of 2×2 cm under an open condition, and after 1 hour, UVA (10 J/cm^2) was irradiated. This treatment of sensitization induction was carried out successively for 5 days. […] Skin reactions after 24 hours and 48 hours from the irradiation were evaluated according to the above standard of Sato et al. The suppression effect by BM-DBM to the skin symptoms due to the immunological mechanism resulting from KP upon photo-irradiation was evaluated by the erythema/edema suppression ratio (%) toward the KP group.

[5] = test substance conc. 0.5% in ethanol with 2% ketoprofen on the auricle, ear thickness 24 hours after irradiation

Row | Compound | Ear edema suppression ratio (%) (Balb/c mice [1]; [5]) | Suppression ratio (%) in the weight increase of the auricular lymph node (Balb/c mice [2]) [%] | further results
1 | 2-ethylhexyl dimethoxybenzylidenedioxoimidazolidinepropionate [DB-DIH] | 34 | – | –
2 | O=C(c1ccc(O)cc1O)c1ccc(O)cc1O [2,2′,4,4′-Tetrahydroxybenzophenone, reference compound] | – | −32 | –
3 | COc1ccc(O)c(-n2nc3ccccc3n2)c1 [2-(2′-Hydroxy-5′-methoxyphenyl)-bezotriazole] | – | 4 | –
4 | CCCCC(CC)COC(=O)C=Cc1ccc(OC)cc1 (centres unmarked) [2-Ethylhexyl 4-methoxycinnamate] | – | 20 | –
5 | Nc1ccc(C(=O)O)cc1 [4-Aminobenzoic acid, reference compound] | – | −39 | –
6 | COc1ccc(C(=O)CC(=O)c2ccc(C(C)(C)C)cc2)cc1 [BM-DBM, 4-tert-butyl-4′-methoxydibenzoylmethane] | 98 | 88 | Ear edema suppression ratio (%) (Balb/c mice [1]; test substance conc. 0.1% with 2% ketoprofen, 24 hours after irradiation): 41%; Ear edema suppression ratio (%) (Balb/c mice [1]; test substance conc. 0.3% with 2% ketoprofen, 24 hours after irradiation): 81%; ^3H-TdR uptake suppression ratio(%) (Balb/c mice [3]; BM-DBM concentration 0.06% with 2% ketoprofen in acetone-olive oil (4:1), auricular lymph node): 30%; ^3H-TdR uptake suppression ratio(%) (Balb/c mice [3]; BM-DBM concentration 0.13% with 2% ketoprofen): 51%; ^3H-TdR uptake suppression ratio(%) (Balb/c mice [3]; BM-DBM concentration 0.25% with 2% ketoprofen): 24%; ^3H-TdR uptake suppression ratio(%) (Balb/c mice [3]; BM-DBM concentration 0.50% with 2% ketoprofen): 94%; ^3H-TdR uptake suppression ratio(%) (Balb/c mice [3]; BM-DBM concentration 1.00% with 2% ketoprofen): 99%; Erythema/Edema suppression ratio (%) After 24 hrs ([4]; skin reaction 24 hours after photo-induction irradiation): 69%; Erythema/Edema suppression ratio (%) After 48 hrs ([4]; skin reaction 48 hours after photo-induction irradiation): 74%
7 | CCCCCCOC(=O)c1ccccc1C(=O)c1ccc(N(C)C)cc1O [DHB-BH, n-hexyl 2-(4-dimethylamino-2-hydroxybenzoyl)benzoate] | 84 | – | –
8 | CCOC(=O)c1ccc(N)cc1 [Ethyl 4-aminobenzoate] | – | 43 | –
9 | O=C(OCCO)c1ccccc1O [Ethylene glycol monosalicylate, reference compound] | – | −68 | –
10 | COc1ccc(C(=O)c2ccccc2)c(O)c1 [Oxybenzone] | – | 56 | –
11 | O=C(Oc1ccccc1)c1ccccc1O [Phenyl salicylate, reference compound] | – | 0 | –
12 | CC1(C)C2CCC1(CS(=O)(=O)O)C(=O)/C2=C\c1ccc(/C=C2/C(=O)C3(CS(=O)(=O)O)CCC2C3(C)C)cc1 [TP-DCS, terephthalylidene-3,3′-dicamphor-10,10′-disulfonic acid] | 65 | 63 | –
